Legend:
sécrétion gastrique = assay: Pentagastrin-stimulated gastric hypersecretion in dogs with a Heidenhain pouch; type: in vivo, chien; conditions: Canis lupus familiaris, po, voie orale, dog, pentagastrin infusion, dose reducing hourly acid output by 50 %, doses expressed as base, read-out: DE50 (the source's name)
Experimental: L'activité inhibitrice de la sécrétion gastrique du composé de l'exemple 1 a été comparée à celle du racémique correspondant à l'aide du test d'hypersécrétion gastrique stimulée par la pentagastrine chez le chien porteur d'une poche de Heidenhein.
Trois chiens "mongrels", porteurs d'une poche de Heidenhein, à jeun depuis 18 heures, reçoivent pendant 4 heures, par perfusion veineuse, […]/kg/heure de pentagastrine sous un volume de 30 ml/heure. La sécrétion de la poche est recueillie dans un flacon qui est changé toutes les 15 minutes. Une heure et demie après le début de la perfusion, le produit à étudier est administré par voie orale dans une gélule n° 000. La dose efficace 50 % (DE 50) eet la dose de produit qui diminue de 50 % le débit acide horaire enregistré pendant la 3ème ou 4ème heure de l'expérimentation par rapport au débit acide horaire enregistré lors de la deuxième heure do la perfusion.
Les résultats obtenus sont rassemblés dans le tableau ci-après, où les dosas sont exprimées en produit sous forme de base : […]

[1] = system: récepteurs muscariniques de l'acétylcholine; type: binding, rat; conditions: compared with quinupramine; from IC50 of 3H-QNB displacement

| SMILES | ED50 (sécrétion gastrique) | activity relative to the corresponding racemate [1] |
| --- | --- | --- |
| CN(C)S(=O)(=O)c1ccc2c(c1)N([C@@H]1CN3CCC1CC3)c1ccccc1S2 [Exemple 1, N,N-diméthyl [aza-1 bicyclo(2,2,2)octyl-3(S)] - 10 10 H-phénothiazinesulfonamide-2] | 0.7 mg/kg | – |
| c1ccc2c(c1)CCc1ccccc1N2[C@@H]1CN2CCC1CC2 [Exemple 2, [aza-1 bicyclo(2,2,2)octyl-3 (S)]-5 dihydro-10,11 5H-dibenz (b,f) azépine] | – | deux fois plus actif |
| CN(C)S(=O)(=O)c1ccc2c(c1)N(C1CN3CCC1CC3)c1ccccc1S2 (racemic) [racémique correspondant, reference compound] | 1 mg/kg | – |

From EP0093643A1 (priority 1982, dated 1983)
